Measurements as given in ChEMBL document CHEMBL1201862, “PubChem BioAssay data set” (2004).
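Tested at 5 concentrations; 48 h exposure; 96-well plates; endpoints linearly interpolated, else capped at highest concentration. GI50 marks 50% less growth.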 The source made the active and inactive calls. No stated cut-off is given here; in the data, active = GI50 up to about 1.1 µM and inactive = higher. Starred links: 1 amine or outer side, 2 acyl side, 3 side chain; linkers in the order of their positions; H or OH if unused. Positions of bridges follow the written chain, without caps; N, C: chain ends. Non-standard residues stand in square brackets, D forms with d. Residues, ends and D or L forms follow the SMILES beside them. *: point of attachment. X40 = CC[C@H](C)[C@@H](N[*:1])[C@@H](O)CC(=O)[*:2]; NMeY = CN[C@@H](Cc1ccc(O)cc1)C(=O)O; dNMeL = CN[C@H](CC(C)C)C(=O)O; Hiv = CC(C)[C@H](O)C(=O)O; Pyruvoyl = CC(=O)C(=O)*

How the values were obtained:
Experiment in all cases: NCI-60 cell line screen, 48 h
[1] = system: HCC 2998
[2] = system: SF-268
[3] = system: ACHN
[4] = system: HT-29
[5] = system: UO-31
[6] = system: NCI-H460
[7] = system: NCI-H522
[8] = system: OVCAR-3
[9] = system: T47D
[10] = system: SF-295
[11] = system: DU-145
[12] = system: SK-MEL-2
[13] = system: UACC-62
[14] = system: SK-MEL-5
[15] = system: SK-MEL-28
[16] = system: M14
[17] = system: OVCAR-4
[18] = system: IGROV-1
[19] = system: UACC-257
[20] = system: MDA-MB-435

| SMILES | GI50 [1] | GI50 [2] | GI50 [3] | GI50 [4] | GI50 [5] | GI50 [6] | GI50 [7] | GI50 [8] | GI50 [9] | GI50 [10] | GI50 [11] | GI50 [12] | GI50 [13] | GI50 [14] | GI50 [15] | GI50 [16] | GI50 [17] | GI50 [18] | GI50 [19] | GI50 [20] |
| --- | --- | --- | --- | --- | --- | --- | --- | --- | --- | --- | --- | --- | --- | --- | --- | --- | --- | --- | --- | --- |
| Clc1cc(Cl)nc(Nc2ccc3c(c2)CCC3)n1 | 16.4 µM (inactive) | 44.8 µM (inactive) | 35.1 µM (inactive) | 22 µM (inactive) | 41.4 µM (inactive) | 30.4 µM (inactive) | 2.54 µM (inactive) | 32 µM (inactive) | 69.3 µM (inactive) | 48.5 µM (inactive) | 61.2 µM (inactive) | 45 µM (inactive) | 46.1 µM (inactive) | 23.8 µM (inactive) | 37.7 µM (inactive) | 42.9 µM (inactive) | 61.2 µM (inactive) | 16 µM (inactive) | 42 µM (inactive) | 58.5 µM (inactive) |
| COc1ccc(/[N+]([O-])=C/c2ccc(OC(=S)S)c(OC)c2)cc1 | > 100 µM (inactive) | 42.5 µM (inactive) | 75 µM (inactive) | 33.3 µM (inactive) | 44.6 µM (inactive) | > 100 µM (inactive) | 25.8 µM (inactive) | 43.9 µM (inactive) | 28.6 µM (inactive) | 28.6 µM (inactive) | 41.6 µM (inactive) | 35.5 µM (inactive) | 99.3 µM (inactive) | 24.5 µM (inactive) | 52.2 µM (inactive) | 46.8 µM (inactive) | 17.4 µM (inactive) | 39.3 µM (inactive) | > 100 µM (inactive) | 9.46 µM (inactive) |
| CC[C@H](C)[C@H]1NC(=O)[C@@H](NC(=O)[C@@H](CC(C)C)N(C)C(=O)[C@@H]2CCCN2C(=O)C(C)=O)[C@@H](C)OC(=O)[C@H](Cc2ccc(OC)cc2)N(C)C(=O)[C@@H]2CCCN2C(=O)[C@H](CC(C)C)NC(=O)[C@H](C(C)C)OC(=O)C[C@@H]1O (Pyruvoyl-P[dNMeL]T[X40][Hiv]LP[NMeY](Me); ester 3-C) | 0.00261 µM (active) | 0.00569 µM (active) | 0.0203 µM (active) | 0.00434 µM (active) | 0.01 µM (active) | 0.00429 µM (active) | 0.00547 µM (active) | 0.00577 µM (active) | 0.00404 µM (active) | 0.00718 µM (active) | 0.00372 µM (active) | 0.0047 µM (active) | 0.00374 µM (active) | 0.00393 µM (active) | 0.005 µM (active) | 0.00269 µM (active) | 0.00562 µM (active) | 0.00471 µM (active) | 0.00594 µM (active) | 0.00485 µM (active) |
| O=C1C=C/C(=N/c2cccc3c(/N=C4/C=CC(=O)O4)cccc23)O1 | > 100 µM (inactive) | 52.6 µM (inactive) | 29 µM (inactive) | 41.8 µM (inactive) | > 100 µM (inactive) | > 100 µM (inactive) | 18.7 µM (inactive) | 51.6 µM (inactive) | 33.7 µM (inactive) | > 100 µM (inactive) | > 100 µM (inactive) | > 100 µM (inactive) | 34.4 µM (inactive) | > 100 µM (inactive) | 28.3 µM (inactive) | 29.2 µM (inactive) | 39.4 µM (inactive) | 58.5 µM (inactive) | 22.3 µM (inactive) | 44.5 µM (inactive) |
| Cc1nn2c(=O)c([N+](=O)[O-])c(/C=C/c3ccc(F)cc3)nc2s1 | 11.4 µM (inactive) | 8.87 µM (inactive) | 11.5 µM (inactive) | 6.52 µM (inactive) | 8.75 µM (inactive) | 8.34 µM (inactive) | 8.49 µM (inactive) | 4.28 µM (inactive) | 4.03 µM (inactive) | 11.8 µM (inactive) | 16.2 µM (inactive) | 9.91 µM (inactive) | 11.3 µM (inactive) | 7.94 µM (inactive) | 12.9 µM (inactive) | 11.3 µM (inactive) | 11 µM (inactive) | 10.5 µM (inactive) | 10.9 µM (inactive) | 4.33 µM (inactive) |
